Assays:
[1] = biological target: T1, Kv11.1 (hERG) (Homo sapiens (Human), UniProt Q12809); assay: Kv11.1 ion channel binding assay (Predictor hERG fluorescence polarisation); settings: cells marked *: measured using hERG binding assay instead of hERG patch clamp assay; read-out: Ki [Kv1.11 hERG]
Description: D) Kv11.1 Ion Channel Binding Assay
Kv11.1 (hERG=human ether a go-go related […]) is a cardiac K^+ channel which should if possible not interact with the test substances. This interaction is determined quantitatively with the aid of the Predictor™ hERG Fluorescence Polarizations (FP) Assays from Life Technologies. In the case of this assay principle, cardiomyocyte cell membranes having a certain proportion of Kv11.1 channels are isolated. A dye-labelled Kv11.1 binding partner gives a high fluorescence polarisation signal by interaction with the Kv11.1. In the case of displacement of the dye, a reduction in the fluorescence polarisation signal occurs.
The assay is carried out automatically as follows: 15 nl of the test substances (highest concentration: 10 mM, 10 concentrations: dilution factors 1:3.16, DMSO) are transferred into an empty microtitre plates having 384 wells by means of an acoustic pipetter. 3 μl of the isolated membranes are subsequently added. Membranes and test substances are incubated at 22° C. for 15 min (+/−5 min). In the next step, the dye-labelled binding partner is added, followed by incubation at 22° C. After incubation for two hours, the measurement of the fluorescence polarisation is carried out on an Envision multimode Reader. Measured raw data are standardised with the aid of Genedata Assay Analyzer. The 1050 and % effect values are calculated in Genedata Condoseo.

[2] = biological target: DNA-PK phosphorylation at serine 2056 (Homo sapiens (Human), UniProt P78527); assay: DNA-PK phosphorylation at serine 2056 (cellular), bleomycin-treated HCT116 cells, ELISA; format: cell-based; settings: cellular DNA-PK phosphorylation at serine 2056, HCT116; read-out: IC50 pDNA-PK
Procedure, shortened: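 Test compounds and bleomycin (10 μM) are added to adherent HCT116 cells for 6 h. Detection uses an HRP-based chemiluminescent ELISA, with phospho-DNA-PK signals standardised to total protein.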

[3] = biological target: DNA-PK (Homo sapiens (Human), UniProt P78527); assay: DNA-PK assay (biochemical), flashplate 33P-ATP kinase assay; settings: biochemical DNA-PK assay
Procedure, shortened: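 Radiometric kinase reaction in streptavidin-coated flashplates, stopped with 200 mM EDTA, then 30 min room-temperature incubation and saline washes.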

[4] = biological target: T1, Kv11.1 (hERG); assay: Kv11.1 (hERG) ion channel activity (patch clamp assay), HEK293 cells transfected with hERG gene; settings: hERG patch clamp assay (cells without asterisk)

T1 sequence (Q12809 whole entry): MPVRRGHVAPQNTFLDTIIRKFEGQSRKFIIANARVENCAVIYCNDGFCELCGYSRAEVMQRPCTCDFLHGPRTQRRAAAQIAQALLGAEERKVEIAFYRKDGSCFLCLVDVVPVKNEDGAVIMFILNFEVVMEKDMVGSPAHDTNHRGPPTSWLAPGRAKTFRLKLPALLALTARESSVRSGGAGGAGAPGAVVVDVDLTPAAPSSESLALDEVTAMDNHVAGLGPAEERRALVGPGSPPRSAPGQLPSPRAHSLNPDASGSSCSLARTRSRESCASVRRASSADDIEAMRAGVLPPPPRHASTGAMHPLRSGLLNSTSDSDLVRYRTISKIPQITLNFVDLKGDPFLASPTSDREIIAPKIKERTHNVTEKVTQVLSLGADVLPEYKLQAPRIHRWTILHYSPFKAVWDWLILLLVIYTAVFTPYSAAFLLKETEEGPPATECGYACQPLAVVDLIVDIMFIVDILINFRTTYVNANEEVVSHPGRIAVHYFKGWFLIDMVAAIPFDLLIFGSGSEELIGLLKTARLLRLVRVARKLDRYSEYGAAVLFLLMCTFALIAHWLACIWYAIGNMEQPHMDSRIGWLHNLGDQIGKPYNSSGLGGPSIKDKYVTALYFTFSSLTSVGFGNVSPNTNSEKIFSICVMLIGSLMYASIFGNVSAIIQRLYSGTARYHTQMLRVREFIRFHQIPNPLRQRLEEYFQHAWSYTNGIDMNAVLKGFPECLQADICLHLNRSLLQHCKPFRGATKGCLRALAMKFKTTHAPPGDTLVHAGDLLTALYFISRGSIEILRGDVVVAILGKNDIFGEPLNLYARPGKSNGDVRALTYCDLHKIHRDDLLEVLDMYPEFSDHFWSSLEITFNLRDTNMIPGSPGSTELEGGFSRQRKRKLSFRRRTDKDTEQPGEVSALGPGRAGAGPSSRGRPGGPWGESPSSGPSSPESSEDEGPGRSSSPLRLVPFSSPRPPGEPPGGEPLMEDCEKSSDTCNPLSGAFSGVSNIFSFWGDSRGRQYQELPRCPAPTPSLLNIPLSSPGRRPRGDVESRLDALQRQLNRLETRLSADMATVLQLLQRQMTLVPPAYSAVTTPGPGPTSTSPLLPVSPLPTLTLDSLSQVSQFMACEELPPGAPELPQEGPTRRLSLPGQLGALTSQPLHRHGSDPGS

Compound	Ki [1]	IC50 [2]	IC50 [3]	Ki ([4]; Ki [Kv1.11 hERG])	Ki ([4]; read-out: Ki [Kv1.11 hERG])
COc1nccnc1C(O)c1ccc(F)c(-c2ncnc3cc(N4CCOCC4)cc(F)c23)c1 (single isomer, unassigned) [Example 252, [4-Fluoro-3-(5-fluoro-7-morpholin-4-yl-quinazolin-4-yl)-phenyl]-(3-methoxy-pyrazin-2-yl)-methanol]	> 25000 nM	< 500 nM	< 3 nM		
[2H]C1([2H])OC([2H])([2H])C([2H])([2H])N(c2ccc3c(-c4cc(C(O)c5ccc(OC)nn5)c(Cl)cc4F)ncnc3c2)C1([2H])[2H] (single isomer, unassigned) [Example 262, [2-Chloro-4-fluoro-5-[7-(2,2,3,3,5,5,6,6-octadeuteriomorpholin-4-yl)quinazolin-4-yl]phenyl]-(6-methoxypyridazin-3-yl)methanol]	> 25000 nM				
COc1ccc(C(O)c2cc(-c3ncnc4cc(N5CCOCC5)cc(F)c34)c(F)cc2Cl)nn1 (single isomer, unassigned) [Example 263, [2-Chloro-4-fluoro-5-(5-fluoro-7-morpholin-4-yl-quinazolin-4-yl)-phenyl]-(6-methoxy-pyridazin-3-yl)-methanol]	> 25000 nM	10000 to 30000 nM	7 to 30 nM		
COC(c1ccc(F)c(-c2ncnc3cc(N4CCOCC4)ccc23)c1)c1nccnc1C (stereo not drawn) [Example 352, 4-{2-Fluoro-5-[methoxy-(3-methyl-pyrazin-2-yl)methyl]-phenyl}-7-morpholin-4-ylquinazoline]	> 25000 nM		> 30 nM		
OC(c1cc(-c2ncnc3cc(N4CCOCC4)ccc23)c(F)cc1F)c1nccnc1OC(F)F (stereo not drawn) [Example 450, (3-Difluoromethoxy-pyrazin-2-yl)-[2,4-difluoro-5-(7-morpholin-4-yl-quinazolin-4-yl)-phenyl]methanol]		5000 to 10000 nM	7 to 30 nM	15000 to 25000 nM	
OC(c1cc(-c2ncnc3cc(N4CCOCC4)ccc23)c(F)cc1F)c1nccnc1OC(F)F (stereo not drawn) [Example 451, (3-Difluoromethoxy-pyrazin-2-yl)-[2,4-difluoro-5-(7-morpholin-4-yl-quinazolin-4-yl)-phenyl]methanol]		500 to 5000 nM	3 to 7 nM		15000 to 25000 nM
OC(c1cc(-c2ncnc3cc(N4CCOCC4)ccc23)c(F)cc1Cl)c1ncnc2ccoc12 (stereo not drawn) [Example 452, [2-Chloro-4-fluoro-5-(7-morpholin-4-yl-quinazolin-4-yl)-phenyl]furo[3,2-d}-pyrimidin-4-yl-methanol]		< 500 nM	< 3 nM	10000 to 15000 nM	
COc1nccnc1C(O)c1cc(-c2ncnc3cc(N4CCOCC4)ccc23)c(F)cc1F (stereo not drawn) [Example 453, [2,4-Difluoro-5-(7-morpholin-4-yl-quinazolin-4-yl)-phenyl]-(3-methoxy-pyrazin-2-yl)-methanol]		< 500 nM	3 to 7 nM	10000 to 15000 nM	
COc1nccnc1C(O)c1cc(-c2ncnc3cc(N4CCOCC4)ccc23)c(F)cc1F (stereo not drawn) [Example 454, [2,4-Difluoro-5-(7-morpholin-4-yl-quinazolin-4-yl)-phenyl]-(3-methoxy-pyrazin-2-yl)-methanol]		< 500 nM	< 3 nM		> 25000 nM
COc1nccnc1[C@H](O)c1cc(-c2ncnc3cc(N4CCOCC4)ccc23)c(F)cc1Cl [Example 455, (R)-[2-Chloro-4-fluoro-5-(7-morpholin-4-yl-quinazolin-4-yl)-phenyl]-(3-methoxy-pyrazin-2-yl)-methanol]		< 500 nM	< 3 nM	15000 to 25000 nM	
COc1nccnc1[C@@H](O)c1cc(-c2ncnc3cc(N4CCOCC4)ccc23)c(F)cc1Cl [Example 456, (S)-(2-Chloro-4-fluoro-5-(7-morprholin-4-yl-quinazolin-4-yl)-pnenyl]-(3-methoxy-pyrazin-2-yl)-methanol]		< 500 nM	< 3 nM	10000 to 15000 nM	
Cc1nccnc1C(O)c1cc(-c2ncnc3cc(N4CCOCC4)ccc23)c(F)cc1Cl (stereo not drawn) [Example 457, [2-Chloro-4-fluoro-5-(7-morpholin-4-yl-quinazolin-4-yl)-phenyl]-(3-methyl-pyrazin-2-yl)-methanol]		< 500 nM	3 to 7 nM		> 25000 nM
COc1ccc(C(O)c2cc(-c3ncnc4cc(N5CCOCC5)ccc34)ccc2Cl)nn1 (stereo not drawn) [Example 458, [2-Chloro-5-(7-morpholin-4-yl-quinazolin-4-yl)-phenyl]-(6-methoxy-pyridazin-3-yl)-methanol]		< 500 nM	< 3 nM	10000 to 15000 nM	
CCOc1cccnc1C(O)c1ccc(F)c(-c2ncnc3cc(N4CCOCC4)ccc23)c1 (stereo not drawn) [Example 463, (3-Ethoxy-pyridin-2-yl)-[4-fluoro-3-(7-morpholin-4-yl-quinazolin-4-yl)-phenyl]methanol]		< 500 nM	3 to 7 nM	15000 to 25000 nM	
OC(c1ccc(F)c(-c2ncnc3cc(N4CCOCC4)ccc23)c1)c1nccnc1OC(F)F (stereo not drawn) [Example 464, (3-Difluoromethoxy-pyrazin-2-yl)-[4-fluoro-3-(7-morpholin-4-yl-quinazolin-4-yl)-phenyl]methanol]		500 to 5000 nM	3 to 7 nM	15000 to 25000 nM	
OC(c1ccc(F)c(-c2ncnc3cc(N4CCOCC4)ccc23)c1)c1ncccc1Cl (stereo not drawn) [Example 465, (3-Chloro-pyridin-2-yl)-[4-fluoro-3-(7-morpholin-4-yl-quinazolin-4-yl)-phenyl]methanol]		< 500 nM	< 3 nM	15000 to 25000 nM	
OC(c1ccc(F)c(-c2ncnc3cc(N4CCOCC4)ccc23)c1)c1ncccc1Cl (stereo not drawn) [Example 466, (3-Chloro-pyridin-2-yl)-[4-fluoro-3-(7-morpholin-4-yl-quinazolin-4-yl)-phenyl]methanol]		500 to 5000 nM	7 to 30 nM		15000 to 25000 nM
COc1nccnc1C(O)c1cc(-c2ncnc3cc(N4CCOCC4)ccc23)c(F)cc1F (stereo not drawn) [Example 467, [2,4-Difluoro-5-(7-morpholin-4-yl-quinazolin-4-yl)-phenyl]-(3-methoxy-pyrazin-2-yl)-methanol]		< 500 nM	3 to 7 nM		> 25000 nM
COc1nccnc1C(O)c1cc(-c2ncnc3cc(N4CCOCC4)ccc23)c(F)cc1Cl (stereo not drawn) [Example 468, [2-Chloro-4-fluoro-5-(7-morpholin-4-yl-quinazolin-4-yl)-phenyl]-(3-methoxy-pyrazin-2-yl)-methanol]		< 500 nM	< 3 nM	15000 to 25000 nM	
Cc1cccnc1C(O)c1ccc(F)c(-c2ncnc3cc(N4CCOCC4)ccc23)c1 (stereo not drawn) [Example 472, [4-Fluoro-3-(7-morpholin-4-yl-quinazolin-4-yl)-phenyl]-(3-methyl-pyridin-2-yl)methanol]		< 500 nM	3 to 7 nM		> 25000 nM
COc1cnc(C(O)c2ccc(F)c(-c3ncnc4cc(N5CCOCC5)ccc34)c2)c(Br)c1 (stereo not drawn) [Example 473, (3-bromo-5-methoxy-pyridin-2-yl)-[4-fluoro-3-(7-morpholin-4-yl-quinazolin-4-yl)-phenyl]methanol]		< 500 nM	3 to 7 nM	15000 to 25000 nM	
OC(c1cn2ccsc2n1)c1cc(-c2ncnc3cc(N4CCOCC4)ccc23)c(F)cc1F (stereo not drawn) [Example 474, [2,4-Difluoro-5-(7-morpholin-4-yl-quinazolin-4-yl)-phenyl]imidazo-[2,1-b]thiazol-6-yl-methanol]		10000 to 30000 nM	> 30 nM	10000 to 15000 nM	
OC(c1ccc(F)c(-c2ncnc3cc(N4CCOCC4)ccc23)c1)c1ncccc1OC(F)(F)F (stereo not drawn) [Example 475, [4-Fluoro-3-(7-morpholin-4-yl-quinazolin-4-yl)-phenyl]-(3-trifluoro-methoxypyridin-2-yl)-methanol]		< 500 nM	< 3 nM	15000 to 25000 nM	
OC(c1ccc(F)c(-c2ncnc3cc(N4CCOCC4)ccc23)c1)c1nccnc1C(F)(F)F (stereo not drawn) [Example 476, [4-Fluoro-3-(7-morpholin-4-yl-quinazolin-4-yl)-phenyl]-(3-trifluoro-methylpyrazin-2-yl)-methanol]		< 500 nM	3 to 7 nM		> 25000 nM
OC(c1ccc(F)c(-c2ncnc3cc(N4CCOCC4)ccc23)c1)c1ncccc1Br (stereo not drawn) [Example 478, (3-bromo-pyridin-2-yl)-[4-fluoro-3-(7-morpholin-4-yl-quinazolin-4-yl)-phenyl] methanol]		< 500 nM	< 3 nM		< 10000 nM
OC(c1cccnn1)c1cc(-c2ncnc3cc(N4CCOCC4)ccc23)ccc1Cl (stereo not drawn) [Example 479, (2-Chloro-5-(7-morpholin-4-yl-quinazolin-4-yl)-phenyl]pyridazin-3-yl-methanol]		< 500 nM	3 to 7 nM	15000 to 25000 nM	
